{
  "source": "patent US6380161B1",
  "about": "“Compositions for treating chemotherapy-resistant tumor cells and targeted chemotherapy compositions” (priority 1999, dated 2002)",
  "key": {"[1]": {"test_system": "Doxorubicin and multidrug-resistant CHO Cells", "test": "Cell viability / in vitro LD50 on drug-resistant CHO cells (ALAMAR BLUE)", "assay_type": "cell-based", "conditions": "24 hours, 0.25, 0.5, 0.75 and 1.0 mM", "protocol": "(§1) Doxorubicin and multidrug-resistant CHO cells were cultured using standard tissue culture conditions: 37° C., DMEM media, serum free conditions, with 5% CO2 for pH adjustment. The cells were treated for 24 hours with either doxorubicin or Dox-P, the peptide conjugate prepared in Example 1, at concentrations of 0.25, 0.5, 0.75, and 1.0 mM. Untreated cells were used as a negative control.\n(§2) Cell viability was measured using the ALAMAR BLUE™ assay (available from Biosource International, Camarillo, Calif.). The assay quantitatively measures the proliferation of cell lines and can establish the relative cytotoxicity of chemical agents. The assay incorporates a fluorometric/colorimetric growth indicator based on detection of metabolic activity. The system incorporates an oxidation-reduction (redox) indicator that both fluoresces and changes color in response to chemical reduction of growth medium resulting from cell growth. This causes the redox indicator to change from its oxidized, non-fluorescent, blue form to its reduced, fluorescent, red form. Data can be collected using either fluorescence-based instrumentation (530-560 nm excitation wavelength and 590 nm emission wavelength) or absorbance-based instrumentation (570 nm and 600 nm)."}, "Melanoma tumor cells": {"test_system": "Melanoma tumor cells", "test": "Melanoma tumor development (lung tumor colonies) in mice", "assay_type": "in vivo", "conditions": "intraperitoneally 24 and 96 hours after tumor implantation, 18 μM/kg, versus buffer", "protocol": "This experiment was designed to evaluate whether the conjugation of the peptide to doxorubicin altered its ability to prevent wild-type, nonresistant tumor development in mice. Melanoma tumor cells were injected into mice. The animals (5 in each group) were treated intraperitoneally 24 and 96 hours after tumor implantation with either buffer alone, Dox-P, the Cys(Acm)-Ser-Val-Thr-Cys(Acm)-Gly (SEQ ID NO: 6) peptide, or Dox, at a concentration of 18 μM/kg. The mice were sacrificed and the melanoma tumor colonies on the lung were counted. […] Additionally, the tumor colonies in the Dox-P and the Dox groups were 2-5 fold smaller than in the buffer group."}, "Lewis Lung Carcinoma": {"test_system": "Lewis Lung Carcinoma", "test": "In vitro LD50 from dose response curves (ALAMAR BLUE cell viability)", "assay_type": "cell-based", "conditions": "dose at which half of the cells die"}, "Wild-type CHO Cells": {"test_system": "Wild-type CHO Cells", "test": "Cell viability / in vitro LD50 on wild-type CHO cells (ALAMAR BLUE)", "assay_type": "cell-based", "protocol": "as §1\nas §2, with “nm). […]” for “nm).”\nThe LD50, the dose at which half of the cells die, was calculated from Dox and Dox-P dose response curves for five different cell lines, as shown in Table 1."}, "Human Breast Carcinoma": {"test_system": "Human Breast Carcinoma", "test": "In vitro LD50 from dose response curves (ALAMAR BLUE cell viability)", "assay_type": "cell-based", "conditions": "dose at which half of the cells die"}, "B16-F10 Melanoma": {"test_system": "B16-F10 Melanoma", "test": "In vitro LD50 from dose response curves (ALAMAR BLUE cell viability)", "assay_type": "cell-based", "conditions": "dose at which half of the cells die"}, "B16-F10 melanoma cells": {"test_system": "B16-F10 melanoma cells", "test": "Adhesion of B16-F10 melanoma cells to coated wells", "assay_type": "cell-based", "conditions": "wells covered with 40 μg/ml", "protocol": "An adhesion study was performed to evaluate the adhesion of B16-F10 melanoma cells (a nonresistant cell line) to doxorubicin and the doxorubicin-peptide conjugate of Example 1. In a 96 well plate, duplicate wells were covered with 40 μg/ml either TSP, Dox-P, the Cys(Acm)-Ser-Val-Thr-Cys(Acm)-Gly (SEQ ID NO: 6) peptide, Dox, the scrambled peptide Val-Cys-Thr-Gly-Ser-Cys (SEQ ID NO: 3), the Cys(Acm)Ser-Val-Thr-Cys-(Acm)-Gly (SEQ ID NO: 6) peptide with a d orientation, or 1% bovine serum albumin (BSA). The wells were dried out overnight and then blocked with BSA. 100 μl of a suspension containing 2×10^5 B16-F-10 melanoma cells were plated in the protein covered wells and incubated at 37° C. for 20 minutes to 1 hour. The non-adherent cells were removed and the wells were washed with a Hepes buffer. The adherent cells were fixed with 2.5% glutaraldehyde for 10 minutes and stained with 0.2% Giemsa. The stain was washed off and the cells were counted in a field of 1 mm square. Cells adhering to BSA were considered background."}, "[2]": {"test_system": "Doxorubicin and multidrug-resistant CHO Cells", "test": "Coadministration of peptides and doxorubicin on resistant CHO cells", "assay_type": "cell-based", "conditions": "peptide coadministered with doxorubicin, not linked", "protocol": "Doxorubicin and multidrug-resistant CHO cells were treated with a 7 coadministration of peptides and doxorubicin. In this example the peptides were not linked to the doxorubicin, but were only administered at the same time."}, "[3]": {"conditions": "mice, 68 mg/kg (same number of doxorubicin molecules as Dox 30 mg/kg), 3 mice treated"}},
  "note": "“Also recorded” adds a separate entry of the source. Where two headings read alike, the source gives them in different places. Residues, ends and D or L forms follow the SMILES beside them. No end group written: not given here. *: point of attachment. X1 = COc1cccc2c1C(=O)c1c(O)c3c(c(O)c1C2=O)CC(O)(C(=O)CO)C[C@@H]3O[C@H]1C[C@H](N*)[C@H](O)[C@H](C)O1; Acm = CC(=O)NC*",
  "data": [
    {"compound": "COc1cccc2c1C(=O)c1c(O)c3c(c(O)c1C2=O)C[C@@](O)(C(=O)CO)C[C@@H]3O[C@H]1C[C@H](N)[C@H](O)[C@H](C)O1", "note": "[Dox, doxorubicin, reference compound]", "values": [
      {"measurement": "Effect on drug-resistant CHO cell viability (dose response)", "setting": "[1]", "result": "negligible effect"},
      {"measurement": "Melanoma tumor development (number of lung tumor colonies / lung metastasis)", "setting": "Melanoma tumor cells", "result": "inhibit the development of lung metastasis; also recorded: effective at preventing tumor development"},
      {"measurement": "In Vitro LD50", "setting": "Lewis Lung Carcinoma", "result": 0.20, "unit": "mM"},
      {"measurement": "In Vitro LD50", "setting": "Wild-type CHO Cells; Wild-type CHO Cells, dose at which half of the cells die", "result": 1.0, "unit": "mM"},
      {"measurement": "In Vitro LD50", "setting": "Human Breast Carcinoma", "result": 1.0, "unit": "mM"},
      {"measurement": "In Vitro LD50", "setting": "B16-F10 Melanoma", "result": 0.30, "unit": "mM"},
      {"measurement": "Toxicity Results: survival", "setting": "mice, 30 mg/kg, 3 mice treated", "result": 3, "unit": "mice died^1"},
      {"measurement": "Toxicity Results: body weight change", "setting": "mouse, in vivo, 30 mg/kg", "result": "significant weight loss"}
    ]},
    {"compound": "COc1cccc2c1C(=O)c1c(O)c3c(c(O)c1C2=O)CC(O)(C(=O)CO)C[C@@H]3O[C@H]1C[C@H](NC(=O)CNC(=O)[C@H](CSCNC(C)=O)NC(=O)[C@@H](NC(=O)[C@@H](NC(=O)[C@H](CO)NC(=O)[C@H](CSCNC(C)=O)NC(C)=O)C(C)C)[C@@H](C)O)[C@H](O)[C@H](C)O1", "note": "(stereo partly drawn) [Dox-P] (Ac-C(Acm)SVTC(Acm)G-X1)", "values": [
      {"measurement": "Effect on drug-resistant CHO cell viability (dose response)", "setting": "[1]", "result": "dramatic dose-response effect"},
      {"measurement": "Melanoma tumor development (number of lung tumor colonies / lung metastasis)", "setting": "Melanoma tumor cells", "result": "inhibit the development of lung metastasis; also recorded: effective at preventing tumor development"},
      {"measurement": "Effect on wild-type CHO cell viability", "setting": "Wild-type CHO Cells; 24 hours, 0.25-1.0 mM, compared with Dox alone", "result": "appears to function more effectively against wild-type CHO cells than Dox alone"},
      {"measurement": "Adhesion of B16-F10 melanoma cells", "setting": "B16-F10 melanoma cells", "result": "does not destroy its adhesive activity"},
      {"measurement": "Toxicity Results: body weight change", "setting": "[3]", "result": "some small weight gain"},
      {"measurement": "Toxicity Results: survival", "setting": "[3]", "result": 3, "unit": "mice lived"}
    ]},
    {"compound": "ASVTAR", "values": [
      {"measurement": "Effect of peptide on doxorubicin toxicity of resistant CHO cells", "setting": "[2]", "result": "shows a dose-response effect"}
    ]},
    {"compound": "Cys(Acm)-Ser-Val-Thr-Cys(Acm)-Gly (C(Acm)SVTC(Acm)G) [thrombospondin-derived hexapeptide with cysteine sulfur protected by acetamidomethyl (Acm) groups]", "values": [
      {"measurement": "Melanoma tumor development (number of lung tumor colonies / lung metastasis)", "setting": "Melanoma tumor cells", "result": "lower number of tumors than buffer alone"},
      {"measurement": "Melanoma tumor development (number of lung tumor colonies / lung metastasis)", "setting": "Melanoma tumor cells; listed as peptide", "result": "inhibit the development of lung metastasis"},
      {"measurement": "Effect of peptide on doxorubicin toxicity of resistant CHO cells", "setting": "[2]", "result": "did not show any effect"}
    ]}
  ]
}
